Laboratory results: ChEMBL document CHEMBL5154646, “Structure-guided optimization of 1H-imidazole-2-carboxylic acid derivatives affording potent VIM-Type metallo-β-lactamase inhibitors” (Eur J Med Chem, 2022)

What was measured:
[1] = Inhibition of bacterial VIM-2 (27 to 266 residues) expressed in Escherichia coli Transetta (DE3) using FC-5 as substrate preincubated with enzyme for 10 mins followed by substrate addition by fluorescence based analysis; parameters: species or system Bacteria
[2] = Inhibition of bacterial recombinant full length C-terminal-TEV-His6-tagged VIM-1 expressed in Escherichia coli Transetta using FC-5 as substrate preincubated with enzyme for 10 mins followed by substrate addition by fluorescence based analysis; parameters: species or system Bacteria
[3] = Inhibition of bacterial recombinant full length N-terminal-TEV-His6-tagged VIM-5 expressed in Escherichia coli Transetta using FC-5 as substrate preincubated with enzyme for 10 mins followed by substrate addition by fluorescence based analysis; parameters: species or system Bacteria
[4] = Inhibition of bacterial NDM-1 (1 to 270 residues) expressed in Escherichia coli Transetta (DE3) using FC-5 as substrate preincubated with enzyme for 10 mins followed by substrate addition by fluorescence based analysis; parameters: species or system Bacteria
[5] = Inhibition of bacterial IMP-1 (1 to 246 residues) expressed in Escherichia coli Transetta (DE3) using FC-5 as substrate preincubated with enzyme for 10 mins followed by substrate addition by fluorescence based analysis; parameters: species or system Bacteria
Escherichia coli [6] = experiment: Potentiation of meropenem-induced antibacterial activity against Escherichia coli C1541 expressing IMP-1 assessed as fold reduction in meropenem MIC at 10 ug/ml incubated for 18 to 20 hrs by CLSI based broth microtiter dilution method; type: functional; conditions: dose 10 µg/ml; time 18-20 hrs
Escherichia coli [7] = experiment: Potentiation of meropenem-induced antibacterial activity against Escherichia coli C1541 expressing VIM-2 assessed as meropenem MIC at 10 ug/ml incubated for 18 to 20 hrs by CLSI based broth microtiter dilution method (reference value: 16 ug/ml); type: functional; conditions: dose 10 µg/ml, time 18-20 hrs
Escherichia coli [8] = experiment: Potentiation of meropenem-induced antibacterial activity against Escherichia coli C1542 expressing VIM-2 assessed as meropenem MIC at 10 ug/ml incubated for 18 to 20 hrs by CLSI based broth microtiter dilution method (reference value: 16 ug/ml); type: functional; conditions: dose 10 µg/ml, time 18-20 hrs
Escherichia coli [9] = experiment: Potentiation of meropenem-induced antibacterial activity against Escherichia coli C1541 expressing IMP-1 assessed as meropenem MIC at 10 ug/ml incubated for 18 to 20 hrs by broth microtiter dilution method (reference value: 32 ug/ml); type: functional; conditions: dose 10 µg/ml, time 18-20 hrs
Escherichia coli [10] = experiment: Potentiation of meropenem-induced antibacterial activity against Escherichia coli C1541 expressing VIM-2 assessed as fold reduction in meropenem MIC at 10 ug/ml incubated for 18 to 20 hrs by CLSI based broth microtiter dilution method; type: functional; conditions: dose 10 µg/ml; time 18-20 hrs
Escherichia coli [11] = experiment: Potentiation of meropenem-induced antibacterial activity against Escherichia coli C1542 expressing VIM-2 assessed as fold reduction in meropenem MIC at 10 ug/ml incubated for 18 to 20 hrs by CLSI based broth microtiter dilution method; type: functional; conditions: dose 10 µg/ml; time 18-20 hrs

| IC50 [1] [µM] | IC50 [2] [µM] | IC50 [3] [µM] | IC50 [4] [µM] | IC50 [5] [µM] | MIC (Escherichia coli [7]) [µg/mL] | MIC (Escherichia coli [8]) [µg/mL] | MIC (Escherichia coli [9]) [µg/mL] | Compound | fold change (FC) (Escherichia coli [6]) | fold change (FC) (Escherichia coli [10]) | fold change (FC) (Escherichia coli [11]) |
| --- | --- | --- | --- | --- | --- | --- | --- | --- | --- | --- | --- |
| 10.7 | > 300 | 31.9 | > 300 | 1.5 | – | – | – | Cc1cn(Cc2ccccc2)c(C(=O)O)n1 | – | – | – |
| > 300 | 227 | > 300 | > 300 | > 300 | – | – | – | Cn1ccnc1C(=O)O | – | – | – |
| 5.79 | > 300 | 23.4 | > 300 | > 300 | – | – | – | CCc1ccc(Cn2ccnc2C(=O)O)cc1 | – | – | – |
| 15.5 | 272 | 101 | > 300 | > 300 | – | – | – | COCCn1ccnc1C(=O)O | – | – | – |
| 118 | > 300 | > 300 | > 300 | > 300 | – | – | – | NC(=O)Cn1ccnc1C(=O)O | – | – | – |
| 30.2 | > 300 | > 300 | > 300 | > 300 | – | – | – | Nc1ccc(Cn2ccnc2C(=O)O)cc1 | – | – | – |
| 70.4 | 76.9 | > 300 | > 300 | > 300 | – | – | – | O=C(O)c1nccn1C1CCCC1 | – | – | – |
| > 300 | > 300 | > 300 | > 300 | > 300 | – | – | – | COC(=O)C(C)n1ccnc1C(=O)O (stereo unspecified) | – | – | – |
| 42.7 | > 300 | > 300 | > 300 | > 300 | – | – | – | O=C(O)c1nccn1Cc1ccoc1 | – | – | – |
| > 300 | > 300 | > 300 | > 300 | > 300 | – | – | – | CC(O)Cn1ccnc1C(=O)O (stereo unspecified) | – | – | – |
| 10.1 | 21.2 | 133 | > 300 | > 300 | – | – | – | CC(C)n1ccnc1C(=O)O | – | – | – |
| 1.55 | 11.7 | 21 | > 300 | 10.3 | – | – | – | O=C(O)c1nccn1Cc1ccco1 | – | – | – |
| 52.4 | > 300 | 32.5 | > 300 | > 300 | – | – | – | CC(C(=O)O)n1ccnc1C(=O)O (stereo unspecified) | – | – | – |
| 11.8 | 47.1 | 15.6 | > 300 | 65.6 | – | – | – | N#CCCCn1ccnc1C(=O)O | – | – | – |
| 33.6 | > 300 | 249 | > 300 | > 300 | – | – | – | CS(=O)(=O)Cn1ccnc1C(=O)O | – | – | – |
| 5.07 | 132 | 30.3 | > 300 | > 300 | – | – | – | O=C(O)c1nccn1Cc1ccsc1 | – | – | – |
| 3.47 | > 300 | 139 | > 300 | > 300 | – | – | – | Cc1ccc(Cn2ccnc2C(=O)O)cc1 | – | – | – |
| > 300 | > 300 | 30.6 | > 300 | > 300 | – | – | – | Nn1ccnc1C(=O)O | – | – | – |
| 75.2 | > 300 | > 300 | > 300 | > 300 | – | – | – | O=C(O)c1nccn1CCO | – | – | – |
| 15.8 | > 300 | 14.9 | > 300 | > 300 | – | – | – | O=C(O)c1nccn1Cc1ccc(F)c(F)c1 | – | – | – |
| 2.04 | 21.3 | 31.6 | > 300 | > 300 | – | – | – | CCC(C)n1ccnc1C(=O)O (stereo unspecified) | – | – | – |
| > 300 | > 300 | > 300 | > 300 | > 300 | – | – | – | O=C(O)c1nccn1C1COC1 | – | – | – |
| > 300 | > 300 | > 300 | > 300 | > 300 | – | – | – | CN(C)CCCn1ccnc1C(=O)O | – | – | – |
| 3.23 | > 300 | 9.02 | 121 | 111 | – | – | – | O=C(O)c1nccn1Cc1ccc(Cl)s1 | – | – | – |
| 0.13 | 15.5 | 0.18 | 34.1 | 110 | – | – | – | O=C(O)c1ncc(C2CC2)n1Cc1ccccc1 | – | – | – |
| 42.9 | > 300 | 68.2 | > 300 | > 300 | – | – | – | NCCCn1ccnc1C(=O)O | – | – | – |
| 0.014 | 2.83 | 0.052 | 16.4 | 9.25 | – | – | – | O=C(O)c1nccn1Cc1ccc(Cl)c(Cl)c1 | – | – | – |

| IC50 [1] [µM] | IC50 [2] [µM] | IC50 [3] [µM] | IC50 [4] [µM] | IC50 [5] [µM] | MIC (Escherichia coli [7]) [µg/mL] | MIC (Escherichia coli [8]) [µg/mL] | MIC (Escherichia coli [9]) [µg/mL] | Compound | fold change (FC) (Escherichia coli [6]) | fold change (FC) (Escherichia coli [10]) | fold change (FC) (Escherichia coli [11]) |
| --- | --- | --- | --- | --- | --- | --- | --- | --- | --- | --- | --- |
| 11.5 | > 300 | > 300 | > 300 | 17.8 | – | – | – | O=C(O)c1nc(C2CC2)cn1Cc1ccccc1 | – | – | – |
| 65.4 | > 300 | 30.9 | > 300 | > 300 | – | – | – | O=C(O)c1ncc[nH]1 | – | – | – |
| 6.89 | 18 | 64 | > 300 | 114 | – | – | – | CSCn1ccnc1C(=O)O | – | – | – |
| 19.4 | 29.7 | 47.1 | > 300 | > 300 | – | – | – | O=C(O)c1nccn1C1CC1 | – | – | – |
| 5.54 | > 300 | > 300 | > 300 | > 300 | – | – | – | O=C(O)c1nccn1Cc1ccccn1 | – | – | – |
| 6.68 | > 300 | 47.3 | > 300 | > 300 | – | – | – | O=C(O)c1nccn1CCn1ccnn1 | – | – | – |
| 79.1 | > 300 | 48.3 | > 300 | 9.29 | – | – | – | O=C(O)c1nc(-c2ccccc2)cn1Cc1ccccc1 | – | – | – |
| 7.76 | > 300 | > 300 | > 300 | > 300 | – | – | – | Nc1cccc(Cn2ccnc2C(=O)O)c1 | – | – | – |
| 33.5 | > 300 | 83.9 | > 300 | > 300 | – | – | – | Cn1cc(Cn2ccnc2C(=O)O)cn1 | – | – | – |
| 68.1 | 26 | 104 | > 300 | > 300 | – | – | – | O=C(O)c1nccn1C1CNC1 | – | – | – |
| 3.58 | > 300 | 18.9 | > 300 | > 300 | – | – | – | O=C(O)c1nccn1Cc1cccc([N+](=O)[O-])c1 | – | – | – |
| 2.7 | 13.9 | 0.065 | 114 | 30.2 | – | – | – | O=C(O)c1nccn1Cc1ccc([N+](=O)[O-])cc1 | – | – | – |
| 22.2 | > 300 | > 300 | > 300 | > 300 | – | – | – | N#CCCn1ccnc1C(=O)O | – | – | – |
| 0.77 | 30.5 | 22 | > 300 | > 300 | – | – | – | O=C(O)c1nccn1Cc1cccnc1Cl | – | – | – |
| 32 | > 300 | > 300 | > 300 | > 300 | – | – | – | CCn1ccnc1C(=O)O | – | – | – |
| 46.4 | > 300 | > 300 | > 300 | > 300 | – | – | – | C=CCn1ccnc1C(=O)O | – | – | – |
| 0.56 | 17.5 | 0.28 | > 300 | 53.7 | – | – | – | O=C(O)c1nccn1Cc1ccc(C(F)(F)F)cc1 | – | – | – |
| 2.13 | 45.7 | 16.5 | > 300 | 160 | – | – | – | Cn1nnnc1SCCn1ccnc1C(=O)O | – | – | – |
| > 300 | > 300 | > 300 | > 300 | > 300 | – | – | – | NCCn1ccnc1C(=O)O | – | – | – |
| 11.8 | 32.1 | > 300 | > 300 | 161 | – | – | – | O=C(O)c1nccn1C1CCC1 | – | – | – |
| > 300 | > 300 | > 300 | > 300 | > 300 | – | – | – | CN(C)CCn1ccnc1C(=O)O | – | – | – |
| 1.1 | 22.9 | 7.02 | > 300 | > 300 | – | – | – | CC(C)Cn1ccnc1C(=O)O | – | – | – |
| 64.1 | > 300 | > 300 | > 300 | > 300 | – | – | – | C[S+]([O-])Cn1ccnc1C(=O)O (stereo unspecified) | – | – | – |
| 2.67 | 15.3 | 18.9 | > 300 | 58.4 | – | – | – | CCCn1ccnc1C(=O)O | – | – | – |
| 0.015 | 4.31 | 0.33 | 59.2 | > 300 | 0.5 | 1 | 32 | O=C(O)c1ncc(-c2ccccc2)n1Cc1ccccc1 | 1 | 32 | 16 |
| 13.7 | > 300 | 90.5 | > 300 | 4.05 | – | – | – | C=CCCn1cc(C)nc1C(=O)O | – | – | – |
| 2.67 | 50 | 28.6 | > 300 | 100 | – | – | – | O=C(O)c1nccn1Cc1cccs1 | – | – | – |
